Reference: ChEMBL document CHEMBL6103595, “Synthesis and evaluation of piceatannol derivatives as novel arginase inhibitors with radical scavenging activity and their potential for collagen reduction in dermal fibroblasts” (Eur J Med Chem, 2025)
Values belong to the molecule of their own block, whether it stands above or below them. Calls of active or inactive are those of the source. No cut-off for these calls is given here.

Assays:
Arginase-1 [1] = molecular target: T1, Arginase-1 (Bos taurus, UniProt Q2KJ64); assay: Inhibition of bovine Arg-1 using L-ARG as substrate incubated for 60 mins by OPA colorimetric analysis
T1 sequence (Q2KJ64 whole entry): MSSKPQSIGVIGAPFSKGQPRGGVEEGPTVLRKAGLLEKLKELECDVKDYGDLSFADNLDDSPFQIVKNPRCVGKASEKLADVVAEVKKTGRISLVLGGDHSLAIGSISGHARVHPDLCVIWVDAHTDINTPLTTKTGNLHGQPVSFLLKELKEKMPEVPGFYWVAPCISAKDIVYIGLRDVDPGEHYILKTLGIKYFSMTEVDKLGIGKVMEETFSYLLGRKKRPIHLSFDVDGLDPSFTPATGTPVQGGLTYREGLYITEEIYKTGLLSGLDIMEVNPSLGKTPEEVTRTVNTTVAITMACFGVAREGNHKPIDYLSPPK

Arginase-1 [2] = molecular target: T2, Arginase-1 (Homo sapiens, UniProt P05089); assay: Inhibition of recombinant human Arg-1 using L-ARG as substrate incubated for 60 mins by OPA colorimetric analysis
T2 sequence (P05089 whole entry): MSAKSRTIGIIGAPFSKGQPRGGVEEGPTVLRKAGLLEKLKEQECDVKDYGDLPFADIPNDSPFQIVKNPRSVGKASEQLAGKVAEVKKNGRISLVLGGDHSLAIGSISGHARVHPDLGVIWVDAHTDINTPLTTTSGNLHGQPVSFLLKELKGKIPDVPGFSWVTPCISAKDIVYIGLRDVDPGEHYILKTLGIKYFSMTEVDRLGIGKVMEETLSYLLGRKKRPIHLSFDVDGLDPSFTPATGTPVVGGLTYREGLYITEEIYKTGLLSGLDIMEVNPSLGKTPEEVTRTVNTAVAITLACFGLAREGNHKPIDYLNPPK

[3] = Antioxidant activity assessed as ABTS radical scavenging activity incubated for 12 hrs under dark condition by absorbance based plate reader analysis; format: functional
[4] = Antioxidant activity assessed as DPPH radical scavenging activity incubated for 30 mins under dark condition by absorbance based analysis; format: functional
Red-COLA1 [5] = assay: Antifibrotic activity against TGF-beta induced human Red-COLA1 cells assessed as reduction in procollagen type-1 synthesis at 10 uM incubated for 48 hrs by ELISA (reference value: 130.6 ng/ml); format: functional, cell-based
[6] = Antifibrotic activity against TGF-beta induced human Red-COLA1 cells assessed as reduction in collagen deposition rate at 10 uM measured after 7 days by sirius red staining based microplate reader analysis (reference value: 130.6%); format: functional; set-up: scale not given: the % may be the effect or the level left; settings: time 7 day
[7] = Cytotoxicity against human Red-COLA1 cells assessed as cell viability at 10 uM incubated for 24 hrs by MTT assay relative to control; format: functional; settings: read-out: Activity
Arginase-1 (Bos taurus) = molecular target: T3, Arginase-1 (Bos taurus) (UniProt Q2KJ64); assay: Potency index, ratio of piceatannol IC50 to test compound IC50 for inhibition of bovine Arg-1 using L-ARG as substrate
T3 sequence (whole entry): T1 sequence (Q2KJ64 whole entry)

[8] = Antifibrotic activity against TGF-beta induced human Red-COLA1 cells assessed as reduction in collagen deposition rate at 5 uM measured after 7 days by sirius red staining based microplate reader analysis (reference value: 130.6%); format: functional; set-up: scale not given: the % may be the effect or the level left; settings: time 7 day
Red-COLA1 [9] = assay: (§1) Antifibrotic activity against TGF-beta induced human Red-COLA1 cells assessed as reduction in procollagen type-1 synthesis at 5 uM incubated for 48 hrs by ELISA (reference value: 130.6 ng/ml); format: functional
[10] = Stability of the compound in aqueous solution at 20 mM measured after 4 hrs; format: physicochemical; settings: buffer, 20000 µM
[11] = Cytotoxicity against human Red-COLA1 cells assessed as cell viability at 5 uM incubated for 24 hrs by MTT assay relative to control; format: functional; settings: read-out: Activity
[12] = Stability of the compound in aqueous solution at 20 mM measured at <= 2 hrs relative to control; format: physicochemical; settings: read-out: Stability
[13] = as §1; format: functional

SMILES: Oc1cccc(C(=S)Nc2ccc(O)c(O)c2)c1
IC50 (Arginase-1 [2]): 28 µM | IC50 (Arginase-1 [1]): 16 µM | EC50 [3]: 12 µM | EC50 [4]: 10 µM

SMILES: O=c1c(O)c(-c2ccc(O)c(O)c2)oc2cc(O)cc(O)c12 [QUERCETIN]
EC50 [3]: 10 µM | EC50 [4]: 16 µM

SMILES: Oc1ccc(/C=C/c2ccc(O)c(O)c2)cc1O
IC50 (Arginase-1 [1]): 69 µM

SMILES: O=S(=O)(Nc1ccc(O)c(O)c1)c1cccc(O)c1
IC50 (Arginase-1 [1]): 325 µM

SMILES: Oc1ccc(/C=C/c2ccccc2)cc1O [(E)-3,4-STILBENDIOL]
IC50 (Arginase-1 [1]): 97 µM

SMILES: Oc1ccc(NC(=S)c2ccccc2)cc1O
IC50 (Arginase-1 [1]): 63 µM

SMILES: Oc1ccc(/N=C(/Nc2ccc(O)c(O)c2)c2ccc(O)c(O)c2)cc1O
IC50 (Arginase-1 [1]): 171 µM

SMILES: O=S(=O)(Nc1ccc(O)c(O)c1)c1ccc(O)c(O)c1
Ratio IC50 (Arginase-1 (Bos taurus)): 6 | IC50 (Arginase-1 [1]): 130 µM

SMILES: Nc1cccc(C(=S)Nc2ccc(O)c(O)c2)c1
IC50 (Arginase-1 [1]): 161 µM

SMILES: O=C(Nc1cc(O)cc(O)c1)c1ccc(O)c(O)c1
IC50 (Arginase-1 [1]): 202 µM

SMILES: O=C(Nc1ccc(O)c(O)c1)c1cc(O)c(O)c(O)c1
IC50 (Arginase-1 [1]): 65 µM

SMILES: Oc1cc(O)cc(C(=S)Nc2ccc(O)c(O)c2)c1
Activity [8]: 133.1% | IC50 (Arginase-1 [2]): 32 µM | Activity (Red-COLA1 [9]): inactive | IC50 (Arginase-1 [1]): 20 µM | EC50 [3]: 12 µM | Stability [10]: Stable | EC50 [4]: 17 µM | viability at 5 µM [11]: 100%

SMILES: Oc1ccc(NC(=S)c2ccc(O)c(O)c2)cc1
IC50 (Arginase-1 [1]): 95 µM

SMILES: CN(C(=O)c1ccc(O)c(O)c1)c1ccc(O)c(O)c1
IC50 (Arginase-1 [1]): 222 µM

SMILES: Oc1cc(O)cc(/C=C/c2ccc(O)c(O)c2)c1 [PICEATANNOL]
remaining at 2 h, 20000 µM [12]: 70% | IC50 (Arginase-1 [2]): 28 µM | Activity (Red-COLA1 [5]): inactive | IC50 (Arginase-1 [1]): 20 µM | EC50 [3]: 13 µM | Activity [6]: 113.5% | viability at 10 µM [7]: 100% | EC50 [4]: 37 µM

SMILES: O/N=C(/Nc1ccc(O)c(O)c1)c1ccc(O)c(O)c1
IC50 (Arginase-1 [1]): 115 µM | EC50 [3]: 12 µM | EC50 [4]: 16 µM

SMILES: O=S(=O)(Nc1ccc(O)c(O)c1)c1cc(O)ccc1O
IC50 (Arginase-1 [1]): > 500 µM

SMILES: Oc1ccc(C(=S)Nc2ccccc2)cc1O
IC50 (Arginase-1 [1]): 124 µM

SMILES: Oc1ccc(O)c(/C=C/c2ccc(O)c(O)c2)c1
IC50 (Arginase-1 [1]): 59 µM

SMILES: Oc1ccc(C(=S)Nc2ccc(O)c(O)c2)cc1
IC50 (Arginase-1 [2]): 38 µM | IC50 (Arginase-1 [1]): 13 µM | EC50 [3]: 10 µM | EC50 [4]: 14 µM

SMILES: Oc1ccc(NC(=S)c2ccc(O)c(O)c2)cc1O
Activity [8]: 100.8% | Ratio IC50 (Arginase-1 (Bos taurus)): 2 | remaining at 2 h, 20000 µM [12]: 70% | IC50 (Arginase-1 [2]): 55 µM | Activity [13]: 87.5 ng/mL | IC50 (Arginase-1 [1]): 9 µM | EC50 [3]: 12 µM | EC50 [4]: 9 µM | viability at 5 µM [11]: 92.8%

SMILES: Nc1cccc(NC(=S)c2ccc(O)c(O)c2)c1
IC50 (Arginase-1 [1]): 116 µM

SMILES: Oc1cc(O)cc(NC(=S)c2ccc(O)c(O)c2)c1
IC50 (Arginase-1 [1]): 66 µM

SMILES: Oc1cccc(NC(=S)c2ccc(O)c(O)c2)c1
IC50 (Arginase-1 [1]): 41 µM

Continued, in another order:

IC50 (Arginase-1 [1]): 148 µM
SMILES: O=C(c1ccc(O)c(O)c1)N(CCCO)c1ccc(O)c(O)c1

IC50 (Arginase-1 [2]): 9 µM | IC50 (Arginase-1 [1]): 17 µM
SMILES: N[C@@H](CSCCB(O)O)C(=O)O
Activity (Red-COLA1 [5]): inactive | Activity [6]: 130.6% | viability at 10 µM [7]: 96.7%

IC50 (Arginase-1 [1]): 228 µM
SMILES: O=C(c1ccc(O)c(O)c1)N(CCO)c1ccc(O)c(O)c1

IC50 (Arginase-1 [1]): 3100 µM
SMILES: O=C(Nc1ccccc1O)c1ccc(O)c(O)c1

IC50 (Arginase-1 [1]): 440 µM
SMILES: Nc1cccc(NC(=O)c2ccc(O)c(O)c2)c1

IC50 (Arginase-1 [1]): 88 µM
SMILES: O=C(c1ccc(O)c(O)c1)N(CCCCO)c1ccc(O)c(O)c1

IC50 (Arginase-1 [1]): 137 µM
SMILES: O=C(c1ccc(O)c(O)c1)N(CCCCCO)c1ccc(O)c(O)c1

IC50 (Arginase-1 [1]): 770 µM
SMILES: O=C(Nc1cccc(O)c1)c1ccc(O)c(O)c1

IC50 (Arginase-1 [1]): 170 µM
SMILES: Nc1ccc(NC(=O)c2ccc(O)c(O)c2)cc1

IC50 (Arginase-1 [1]): 34 µM | EC50 [3]: 5 µM | EC50 [4]: 23 µM
SMILES: O=C(Nc1ccc(O)c(O)c1)c1cc(O)cc(O)c1

IC50 (Arginase-1 [1]): 1000 µM
SMILES: O=C(Nc1ccccc1)c1ccc(O)c(O)c1

IC50 (Arginase-1 [1]): 20 µM | EC50 [3]: 12 µM | EC50 [4]: 12 µM
SMILES: O=C(Nc1ccc(O)c(O)c1)c1ccc(O)c(O)c1

EC50 [3]: 24 µM | EC50 [4]: 29 µM
SMILES: Cc1c(C)c2c(c(C)c1O)CCC(C)(C(=O)O)O2 (stereo not given) [TROLOX]

IC50 (Arginase-1 [1]): 69 µM
SMILES: O=C(Nc1ccc(O)c(O)c1)c1cccc(O)c1O

IC50 (Arginase-1 [1]): 2600 µM
SMILES: O=C(Nc1ccc(O)cc1)c1ccc(O)c(O)c1
